Values after ≈ are worked out from the molar mass of the structure shown.
Key:
CRO2B = assay: Chemosensitivity test (modified MTT test EZ4U); settings: Homo sapiens, 96 h, read-out: IC50-Werte
Description: (§1) Die Verbindungen wurden in Dimethylsulfoxid (DMSO) als konzentrierte Stammlösungen (100-400fach) gelöst und für Proliferationstests in Zellkulturmedium verdünnt.
(§2) Die Zellen wurden auf Verunreinigung durch Mycoplasmen untersucht. Das Medium wurde mit 10% hitzeinaktiviertem foetalem Kälberserum (Seromed) and 4 mM Glutamin ergänzt. Die Zellen wurden durch Trypsinierung subkultiviert (0.03% Trypsin enthaltend 0.02% EDTA, dreimal pro Woche). Die Trypsinierung wurde durch Verwendung vom komplettem Zellkulturmedium gestoppt. Die Zellzahl wurde unter Verwendung eines TOA Sysmex Microzellzählers (TOA, Tokyo, Japan) bestimmt.
(§3) 10^4 Zellen/well wurden in Mikrotiterplatten mit 96 Vertiefungen (100 µl Medium) verteilt und die zu testenden Verbindungen wurden in einem weiteren Volumen von 100 µl hinzugegeben. Alle Verbindungen wurden entweder in 3 fixen Konzentrationen eingesetzt (für Tabellen 1-3) oder in 10 Stufen verdünnt unter Verwendung von Zweifachverdünnungsschritten zur Bestimmung der IC50-Werte (dreifache Ansätze, in den meisten Fällen vierfache Ansätze). Die Platten wurden, mit der Ausnahme der Tests zur Untersuchung des Zusammenhangs von Applikationsdauer und Zellreaktion, 4 Tage lang unter Zellkulturbedingungen inkubiert und die Zellviabilität wurde unter Verwendung eines modifizierten MTT Tests bestimmt (Formazan-Farbstoffbildung aus Tetrazoliumsalzen wie MTT, XTT, WST-1 und anderen durch das mitochondriale Reduktionsystem Succinattetrazolium Reductase EC 1.3.99.1.; EZ4U nichtradioaktiver Zellproliferations- und Cytotoxizitätstest, Biomedica, Wien, Österreich; Testmanual unter: www.bmgrp.com). Hierbei wurde die mitochondriale Aktivität und dadurch die Zellviabilität/Zellzahl bestimmt. Kurz gesagt wurde das gelieferte Substrat in einer Aktivatorlösung gelöst und 20 µl der Mischung wurden für 2 Stunden pro Vertiefung hinzugegeben (Gesamtvolumen 200 µl). Die optische Dichte wurde bei 450 nm unter Verwendung einer leeren Vertiefung als Referenz in einem Mikroplattenlesegerät (Eurogenetics, Brüssel, Belgien) bestimmt. Für jede Zell-Line wurden Vertiefungen verwendet um das MTT-Signal der Mediumkontrollen ohne Testsubstanzen zu bestimmen. Die Proliferation in den Test-Vertiefungen wurde in Bezug auf diese Kontrollwerte (100%) errechnet. Die Testergebnisse wurden zwischen 0,3 und 1,5 optischer Dichte für langsam bzw. schnellproliferierende Zellen erfasst. Diese Dosis-Wirkungs-Beziehungen wurden verwendet um die IC50 (Konzentration bei der das Wachstum um 50% gehemmt wird) unter Verwendung von PRISM Scientific Software (GraphPad Inc., San Diego, CA) zu berechnen.

DU 145 = assay: Chemosensitivity test (modified MTT test EZ4U); settings: Homo sapiens, DU-145, 96 h, read-out: IC50-Werte
Description: as §1
(§4) Mit Ausnahme von SIM, KAL Ewingsarkom (in Wien etabliert) und LAN Neuroblastom (University of Los Angeles) wurden die Zell-Linien von der American Type Culture Collection (ATCC, Rockville, MD) bezogen und zum Erhalt von konfluenten Monolayerkulturen in RPMI-1640 Bikarbonatmedium (Seromed, Berlin, Deutschland) in einem Zellkulturschrank (5% CO2, 37°C) kultiviert. Mit der Ausnahme der murinen NlH3T3 Fibroblasten sind alle verwendeten Zell-Linien humanen Ursprungs. Die Zellen wurden auf Verunreinigung durch Mycoplasmen untersucht. Das Medium wurde mit 10% hitzeinaktiviertem foetalem Kälberserum (Seromed) and 4 mM Glutamin ergänzt. Die Zellen wurden durch Trypsinierung subkultiviert (0.03% Trypsin enthaltend 0.02% EDTA, dreimal pro Woche). Die Trypsinierung wurde durch Verwendung vom komplettem Zellkulturmedium gestoppt. Die Zellzahl wurde unter Verwendung eines TOA Sysmex Microzellzählers (TOA, Tokyo, Japan) bestimmt.
(§5) 10^4 Zellen/well wurden in Mikrotiterplatten mit 96 Vertiefungen (100 µl Medium) verteilt und die zu testenden Verbindungen wurden in einem weiteren Volumen von 100 µl hinzugegeben. […]

Salmonella sp = assay: Minimal inhibitory concentration (MHK), microtitre plate, TTC staining; assay type: cell-based; settings: 48h, 36°C
Description: Das Inokulum für die Tests wurde durch Verdünnung der Mikroorganismen in wässriger 0,85% NaCI-Lösung hergestellt, die Verdünnung auf die Stufe 0,5 nach McFarland eingestellt und die Konzentration spektrometrisch bei einer Wellenlänge von 580nm überprüft. Die Zellsuspensionen wurden zur Verwendung in den Tests auf 10^4 UFC/ml verdünnt. Die MHK-Tests erfolgten (Vorschrift nach J. N. P. Eloff, Planta Medica, Vol. 64, 1998, p 711-713) in Mikrotiterplatten mit 96 Vertiefungen. Serienverdünnungen der Konzentrationen lagen im Bereich 1,00 - 0,0015 mg/mL. Als Kontrollsubstanzen dienten Chloramphenicol bzw. Nistatin (Merck) in einer Konzentration von 0,062 - 0,005 mg/ml bzw. 0,0125 - 0,001 mg/ml. Das Inokulum (100 µl) wurde in alle Vertiefungen gegeben und die Platten für 48h bei 36°C inkubiert. Die antimikrobielle Aktivität wurde durch Zugabe von 20 µl einer 0,5% igen wässrigen Lösung von TTC (Tetrazoliumchlorid, Merck) pro Vertiefung detektiert. Die minimale Hemmkonzentration (MHK) wird als die niedrigste Konzentration der Verbindung definiert die das sichtbare Wachstum hemmt (durch TTC-Färbung indiziert).

E. hirae = assay: as above; assay type: cell-based; settings: 48h, 36°C
HT29 = assay: Chemosensitivity test (modified MTT test EZ4U); settings: Homo sapiens, HT-29, 96 h, read-out: IC50-Werte
Description: as §1, §4, §5

Bacillus subitilis = assay: Minimal inhibitory concentration (MHK), microtitre plate, TTC staining; assay type: cell-based; settings: 48h, 36°C
MDA-MB435 = assay: Chemosensitivity test (modified MTT test EZ4U); settings: Homo sapiens, MDA-MB-435, 96 h, read-out: IC50-Werte
Description: as §1, §4, §5

WI38 = assay: Chemosensitivity test (modified MTT test EZ4U); settings: Homo sapiens, WI-38, 96 h, read-out: IC50-Werte
Description: as §1, §2, §3

[1] = tested on: Staphylococcus aureus (Stamm ATCC 6538); assay: Mouse ear test (in vivo), antiseptic effect; parameters: key to Keimwachstum (grade): +++: totale Verhinderung des Keimwachstums; ++: Keimwachstum deutlich reduziert aber nicht völlig unterdrückt; settings: mouse ears infected with S. aureus ATCC 6538; germ count vs infected untreated animal after 18 and 24 h
CaCo-2 = assay: Chemosensitivity test (modified MTT test EZ4U); settings: Homo sapiens, Caco-2, 96 h, read-out: IC50-Werte
Description: as §1, §2, §3

Rhodococcus equi = assay: Minimal inhibitory concentration (MHK), microtitre plate, TTC staining; assay type: cell-based; settings: 48h, 36°C
Micrococcus luteus = assay: as above; assay type: cell-based; settings: 48h, 36°C
T47D = assay: Chemosensitivity test (modified MTT test EZ4U); settings: Homo sapiens, T47D, 96 h, read-out: IC50-Werte
Description: as §1, §2, §3

Colo205 = assay: Chemosensitivity test (modified MTT test EZ4U); settings: Homo sapiens, COLO 205, 96 h, read-out: IC50-Werte
Description: as §1, §2, §3

S. epidermides = assay: Minimal inhibitory concentration (MHK), microtitre plate, TTC staining; assay type: cell-based; settings: 48h, 36°C
Candida albicans = assay: as above; assay type: cell-based; settings: 48h, 36°C
SW620 = assay: Chemosensitivity test (modified MTT test EZ4U); settings: Homo sapiens, SW-620, 96 h, read-out: IC50-Werte
Description: as §1, §2, §3

S. aureus = assay: Minimal inhibitory concentration (MHK), microtitre plate, TTC staining; assay type: cell-based; settings: 48h, 36°C
Escherichia coli = assay: as above; assay type: cell-based; settings: 48h, 36°C
BT20 = assay: Chemosensitivity test (modified MTT test EZ4U); settings: Homo sapiens, BT-20, 96 h, read-out: IC50-Werte
Description: as §1, §4, §5

MIAPaCa2 = assay: Chemosensitivity test (modified MTT test EZ4U); settings: Homo sapiens, MIA PaCa-2, 96 h, read-out: IC50-Werte
Description: as §1, §2, §3

BxPC3 = assay: Chemosensitivity test (modified MTT test EZ4U); settings: Homo sapiens, BXPC-3, 96 h, read-out: IC50-Werte
Description: as §1, §4, §5

[2] = Radical scavenger screening with DPPH radicals (DPPH test); settings: Konzentrationen 500 und 1000µg/ml
Description: […] die 6 Verbindungen HMF2, HMF-3, CH-1, L5, Q20 und […]. Die […] durch den DPPH-Test ermittelt, wobei sich die UV/VIS-Absorption des freien stabilen […] (Diphenyl-β-picrylhydrazin) in Abhängigkeit vom Zustand von […]. Die Auswertung erfolgt qualitativ (dünnschichtchromatographisch) und quantitativ (photometrisch) mit Ascorbinsäure […] Molyneux P. (2004) The use of the stabel free radical diphenylpicrylhydrazyl (DPPH) for estimating antioxidant activity. Songklanakarin J Sci Technol. 26(2): 211-219).

S. falcium = assay: Minimal inhibitory concentration (MHK), microtitre plate, TTC staining; assay type: cell-based; settings: 48h, 36°C

Question: What does the source list for `COc1cc(/C=C/C(=O)c2ccccc2O)ccc1O` [Q20, 3-(4-Hydroxy-3-methoxyphenyl)-1-(2-hydroxyphenyl)-propenon]?
Answer: IC50 (CRO2B): 12 µg/mL (≈ 44.4 µM); IC50 (DU 145): 16 µg/mL (≈ 59.2 µM); MHK-Werte (Salmonella sp): >1,0 mg/ml; MHK-Werte (E. hirae): >1,0 mg/ml; IC50 (HT29): 16 µg/mL (≈ 59.2 µM); MHK-Werte (Bacillus subitilis): 0,5 mg/ml; IC50 (MDA-MB435): 24 µg/mL (≈ 88.8 µM); IC50 (WI38): 8.3 µg/mL (≈ 30.7 µM); Keimwachstum (grade) [1]: ++; Keimwachstum reduziert auf [1]: 30%; IC50 (CaCo-2): 12 µg/mL (≈ 44.4 µM); MHK-Werte (Rhodococcus equi): >1,0 mg/ml; MHK-Werte (Micrococcus luteus): 1,0 mg/ml; IC50 (T47D): 25 µg/mL (≈ 92.5 µM); IC50 (Colo205): 27 µg/mL (≈ 99.9 µM); MHK-Werte (S. epidermides): 0,5 mg/ml; MHK-Werte (Candida albicans): 0,3 mg/ml; IC50 (SW620): 17 µg/mL (≈ 62.9 µM); MHK-Werte (S. aureus): 1,0 mg/ml; MHK-Werte (Escherichia coli): >1,0 mg/ml; IC50 (BT20): 33 µg/mL (≈ 122 µM); IC50 (MIAPaCa2): 18 µg/mL (≈ 66.6 µM); IC50 (BxPC3): 33 µg/mL (≈ 122 µM); Radikalfänger-Effekt [2]: 98%; MHK-Werte (S. falcium): 0,3 mg/ml
